{"source": "paper PMC5442763", "about": "“Selective Inhibition of ADAM17 Efficiently Mediates Glycoprotein Ibα Retention During Ex Vivo Generation of Human Induced Pluripotent Stem Cell‐Derived Platelets” (Stem Cells Translational Medicine, 2016)", "key": {"[1]": {"tested_on": "thrombus formation in NOG mice", "experiment": "In vivo imaging of thrombus formation by transfused iPSC platelets", "set-up": "species or system mouse", "settings": "1 × 10^7 CD41a+ iPSC platelets generated with or without KP-457, irradiated NOG mice, laser injury; p = .0556", "protocol": "The procedure was identical to that in the previous report. Small vessels (<25 μm in diameter) within mesenteric capillaries of male NOD/SCID/IL‐2Rg‐null (NOG) mice were evaluated. NOG mice were purchased from the Central Institute for Experimental Animals (Kawasaki, Kanagawa, Japan, http://www.ciea.or.jp/en/index.html)."}, "dogs": {"tested_on": "dogs", "experiment": "Good laboratory practice systemic toxicity study in dogs", "format": "in vivo", "settings": "intravenously once a day for 4 weeks, doses up to 3 mg/kg (maximal dose tested), data not shown"}, "human MMP13": {"target": "T1, human MMP13 (Homo sapiens, UniProt P45452)", "T1 construct": "purchased EMD Millipore", "experiment": "MMP and ADAM activity assay (fluorescence-based): MMP13", "format": "biochemical", "settings": "cell-free fluorescence assay", "description": "(§1) Human ADAM17, ADAM10, and MMP17 were from R&D Systems (Minneapolis, MN, http://www.rndsystems.com), and human MMP1, MMP2, MMP3, MMP8, MMP9, MMP13, and MMP14 were from EMD Millipore. MMP1, MMP2, MMP8, MMP9, MMP13, and MMP17 were activated using p‐aminophenylmercuric acetate (Sigma‐Aldrich) before testing. Fluorogenic substrates for measuring activity of ADAM10 and ADAM17 [Nma‐[…](Dnp)r‐NH2, based on the cleavage site of TNF‐α]; MMP1, MMP9, MMP13, and MMP14 [Dnp‐P‐Cha‐GC(Me)HAK(N‐Me‐Abz)‐NH2]; MMP3 [MOCAc‐RPKPVE‐Nva‐WRK(Dnp)‐NH2]; and MMP2, MMP8, and MMP17 [MOCAc‐PLGL‐A2pr(Dnp)‐AR‐NH2] were all provided by Peptide Institute (Osaka, Japan, https://www.peptide.co.jp/en) and used as substrates. In addition, inhibitory activities were measured using LC/MS/MS with a GPIbα‐based substrate peptide ([…]), a C terminal‐based standard peptide ([…]), and an internal standard peptide ([…]). These peptides were synthetized by Scrum (Tokyo, Japan, http://www.scrum‐net.co.jp/english/top_en.htm)."}, "[2]": {"tested_on": "platelets derived from human ESCs", "experiment": "GPIbα retention in platelets derived from human ESCs", "format": "cell-based", "settings": "KP-457 15 µmol/L", "protocol": "Directed differentiation to MKs and platelets from iPSCs and ESCs was performed as described previously. Briefly, 3 × 10^4 HPCs derived from iPS‐sacs on C3H10T1/2 feeder cells in the presence of 20 ng/ml vascular endothelial growth factor were transferred on day 14 of culture onto C3H10T1/2 feeder cells in differentiation medium supplemented with 50 ng/ml stem cell factor, 100 ng/ml thrombopoietin, 25 U/ml heparin sodium, and test compounds at 24°C or 37°C. The medium was refreshed every 3 days, and nonadherent cells were collected and analyzed on days 22–24.\n(§2) Flow cytometric analysis was performed as previously described. Briefly, iPSC‐ and ESC‐derived MKs on days 22–24 and platelets in their supernatants were stained with combinations of antibodies for 30 minutes on ice (for MKs) or at room temperature (for platelets). Samples of MKs/platelets were then washed, diluted with staining medium (phosphate‐buffered saline containing 3% fetal bovine serum), and analyzed using flow cytometry (FACSAria; BD). Trucount tubes (BD) were used to quantify the MKs and platelets.\nFig. S4. The inhibitory effect of KP-457 on GPIbα shedding in platelets derived from human\nESCs and immortalized megakaryocyte progenitor cell lines (imMKCLs).\nPercentages of GPIbα-expressing CD41a+ platelets produced from human ESCs (A) and […]"}, "[3]": {"experiment": "Good laboratory practice genotoxicity studies", "settings": "data not shown"}, "imMKCL platelets": {"tested_on": "imMKCL platelets", "experiment": "GPIbα retention in imMKCL-derived platelets", "format": "cell-based, human", "protocol": "imMKCL expansion and subsequent platelet production were performed as previously reported. Briefly, imMKCLs were cultured in the presence of doxycycline for self‐replication by the expression of three doxycycline‐regulated transgenes: c‐MYC, BMI1, and BCL‐XL. imMKCLs were subsequently cultured for 5 days in the absence of doxycycline to produce platelets by turning the transgenes off, with or without 15 µmol/l KP‐457.\nas §2\nFig. S4. The inhibitory effect of KP-457 on GPIbα shedding in platelets derived from human ESCs and immortalized megakaryocyte progenitor cell lines (imMKCLs).\nPercentages of GPIbα-expressing CD41a+ platelets produced from human ESCs (A) and immortalized megakaryocyte progenitor cell lines (imMKCLs) (B), in the absence or presence of KP-457 (15 µmol/L). * P < 0.05 compared to the vehicle group by student’s t test, N≧3. […]"}, "human MMP8": {"target": "T2, human MMP8 (Homo sapiens, UniProt P22894)", "T2 construct": "purchased EMD Millipore", "T2 sequence (P22894 101-467)": "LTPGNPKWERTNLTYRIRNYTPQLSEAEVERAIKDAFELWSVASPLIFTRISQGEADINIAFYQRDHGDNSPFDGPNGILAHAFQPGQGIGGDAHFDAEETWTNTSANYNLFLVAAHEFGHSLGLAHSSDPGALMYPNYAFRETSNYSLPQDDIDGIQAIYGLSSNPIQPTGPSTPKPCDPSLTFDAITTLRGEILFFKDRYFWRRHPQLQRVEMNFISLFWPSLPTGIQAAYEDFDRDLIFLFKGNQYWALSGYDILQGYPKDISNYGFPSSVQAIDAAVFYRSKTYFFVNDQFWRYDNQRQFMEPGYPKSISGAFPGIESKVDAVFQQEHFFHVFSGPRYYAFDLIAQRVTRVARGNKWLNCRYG", "experiment": "MMP and ADAM activity assay (fluorescence-based): MMP8", "format": "biochemical", "settings": "cell-free fluorescence assay", "description": "as §1"}, "Human ADAM17": {"target": "T3, Human ADAM17 (Homo sapiens, UniProt P78536)", "T3 construct": "purchased R&D Systems", "T3 sequence (P78536 215-824)": "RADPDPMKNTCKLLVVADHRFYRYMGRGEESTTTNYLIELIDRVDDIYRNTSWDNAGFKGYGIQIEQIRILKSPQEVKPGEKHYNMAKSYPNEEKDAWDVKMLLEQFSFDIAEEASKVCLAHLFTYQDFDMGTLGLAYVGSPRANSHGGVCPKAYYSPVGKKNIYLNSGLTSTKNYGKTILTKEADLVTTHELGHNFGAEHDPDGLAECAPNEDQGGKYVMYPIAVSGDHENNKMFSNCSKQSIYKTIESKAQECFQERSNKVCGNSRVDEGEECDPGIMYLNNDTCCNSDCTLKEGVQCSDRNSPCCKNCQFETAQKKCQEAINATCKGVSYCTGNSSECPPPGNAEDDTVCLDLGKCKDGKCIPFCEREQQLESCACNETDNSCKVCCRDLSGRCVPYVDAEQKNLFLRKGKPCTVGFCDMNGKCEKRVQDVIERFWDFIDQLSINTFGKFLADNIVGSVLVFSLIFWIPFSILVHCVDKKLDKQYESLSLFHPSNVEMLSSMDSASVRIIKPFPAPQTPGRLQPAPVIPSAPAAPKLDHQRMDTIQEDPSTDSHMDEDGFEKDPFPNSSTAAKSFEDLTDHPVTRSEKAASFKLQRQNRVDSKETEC", "experiment": "MMP and ADAM activity assay (fluorescence-based, cell-free): ADAM17", "format": "biochemical", "description": "as §1"}, "human MMP9": {"target": "T4, human MMP9 (Homo sapiens, UniProt P14780)", "T4 construct": "purchased EMD Millipore", "T4 sequence (P14780 107-707 limits assumed)": "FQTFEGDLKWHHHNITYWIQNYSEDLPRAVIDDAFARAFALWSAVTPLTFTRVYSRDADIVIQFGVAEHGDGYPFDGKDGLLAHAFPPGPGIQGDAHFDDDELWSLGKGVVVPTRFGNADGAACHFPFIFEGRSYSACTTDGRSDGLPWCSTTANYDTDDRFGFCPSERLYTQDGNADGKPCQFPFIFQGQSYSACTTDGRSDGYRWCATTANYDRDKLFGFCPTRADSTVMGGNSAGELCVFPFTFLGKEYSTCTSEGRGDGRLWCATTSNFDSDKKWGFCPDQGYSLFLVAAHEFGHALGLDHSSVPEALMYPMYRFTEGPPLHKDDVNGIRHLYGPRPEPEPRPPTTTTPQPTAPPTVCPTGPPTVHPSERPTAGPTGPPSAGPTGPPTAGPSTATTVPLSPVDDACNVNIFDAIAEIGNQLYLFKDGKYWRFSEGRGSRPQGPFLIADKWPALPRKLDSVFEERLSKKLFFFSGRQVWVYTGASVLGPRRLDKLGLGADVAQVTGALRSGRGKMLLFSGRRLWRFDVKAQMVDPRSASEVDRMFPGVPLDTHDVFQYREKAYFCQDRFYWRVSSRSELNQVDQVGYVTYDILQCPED", "experiment": "MMP and ADAM activity assay (fluorescence-based): MMP9", "format": "biochemical", "settings": "cell-free fluorescence assay", "description": "as §1"}, "[4]": {"tested_on": "iPSC platelets, vWF/GPIbα-dependent aggregation", "experiment": "Flow cytometry-based platelet aggregation assay (ristocetin)", "format": "cell-based, human", "settings": "15 µmol/l KP-457 during generation; 2 mg/ml ristocetin; vs. generated in its absence", "protocol": "Flow cytometry platelet aggregation assays were performed as recently described. Aliquots of iPSC platelets, imMKCL platelets, or fresh washed human platelets were stained with anti‐CD9‐APC or anti‐CD9‐V450, and CD41a^+ platelets were counted using flow cytometry. Next, aliquots of platelets stained using anti‐CD9‐APC were mixed with platelets stained using anti‐CD9‐V450 at a 1:1 ratio (1–4 ×10^5 cells/ml each) and suspended in Tyrode‐HEPES solution containing […] PPACK (a thrombin inhibitor), 10% filtered human plasma, and 3 mmol/l CaCl2. The mixed platelets were stimulated with 2 mg/ml ristocetin or 100 µmol/l TRAP6 and 50 µmol/l ADP for 10 minutes at 37°C while swirling, fixed, and analyzed using flow cytometry. To quantify platelet aggregation, an index of double‐colored events (%) was calculated using the following formula described elsewhere: […]"}, "platelet aggregation": {"tested_on": "platelet aggregation", "experiment": "Platelet aggregation induced by thrombin or collagen", "format": "cell-based"}, "human MMP2": {"target": "T5, human MMP2 (Homo sapiens, UniProt P08253)", "T5 construct": "purchased EMD Millipore", "T5 sequence (P08253 110-660)": "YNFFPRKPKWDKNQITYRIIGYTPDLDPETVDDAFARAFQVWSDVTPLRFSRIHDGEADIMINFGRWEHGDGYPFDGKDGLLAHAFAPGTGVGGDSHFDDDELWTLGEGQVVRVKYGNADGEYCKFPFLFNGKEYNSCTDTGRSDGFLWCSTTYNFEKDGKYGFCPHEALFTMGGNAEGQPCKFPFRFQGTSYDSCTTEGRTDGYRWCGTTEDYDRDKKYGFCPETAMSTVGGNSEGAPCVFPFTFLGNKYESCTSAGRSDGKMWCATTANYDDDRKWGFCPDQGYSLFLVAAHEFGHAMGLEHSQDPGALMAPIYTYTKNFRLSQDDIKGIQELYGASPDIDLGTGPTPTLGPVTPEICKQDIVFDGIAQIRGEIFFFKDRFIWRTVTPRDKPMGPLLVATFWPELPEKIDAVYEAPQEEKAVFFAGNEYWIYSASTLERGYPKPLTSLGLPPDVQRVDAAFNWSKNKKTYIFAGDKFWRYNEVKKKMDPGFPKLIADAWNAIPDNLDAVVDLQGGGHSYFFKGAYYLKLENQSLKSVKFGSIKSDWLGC", "experiment": "MMP and ADAM activity assay (fluorescence-based): MMP2", "format": "biochemical", "settings": "cell-free fluorescence assay", "description": "as §1"}}, "note": "pIC50: −log10 of the molar value.", "data": [{"smiles": "CC#CCOc1ccc(S(=O)(=O)CC(c2ccc(CNS(C)(=O)=O)cc2)N(O)C=O)cc1", "note": "(stereo not drawn) [KP-457, N‐(2‐{[4‐(but‐2‐yn‐1‐yloxy)phenyl]sulfonyl}‐1‐[4‐(methylsulfonamidomethyl)phenyl]ethyl)‐N‐hydroxyformamide]", "values": [{"measurement": "iPSC platelets contributing to thrombus formation in vivo", "setting": "[1]", "value": "higher number of iPSC platelets contributed to thrombus formation"}, {"measurement": "systemic toxicity", "setting": "dogs", "value": "neither genotoxicity nor systemic toxicity"}, {"measurement": "pIC50", "setting": "human MMP13", "value": 6.03}, {"measurement": "GPIbα retention in platelets derived from human ESCs", "setting": "[2]", "value": "consistently observed"}, {"measurement": "genotoxicity", "setting": "[3]", "value": "neither genotoxicity nor systemic toxicity"}, {"measurement": "GPIbα expression on platelets under static culture", "setting": "imMKCL platelets; 3 days, 37°C, in the presence of KP-457, data not shown", "value": "highly maintained"}, {"measurement": "GPIbα retention in platelets derived from imMKCLs", "setting": "imMKCL platelets; KP-457 15 µmol/L", "value": "consistently observed"}, {"measurement": "pIC50", "setting": "human MMP8", "value": 5.66}, {"measurement": "potency relative to GM-6001, inhibition of cleavage of the TNF-α sequence", "setting": "Human ADAM17; cell-free enzyme assay", "value": 10, "unit": "times"}, {"measurement": "selectivity for ADAM17 over other MMPs and ADAM10", "setting": "Human ADAM17; cell-free enzyme assays", "value": "> 50", "unit": "times"}, {"measurement": "pIC50", "setting": "Human ADAM17; cell-free fluorescence assay, TNF-α cleavage site substrate", "value": 7.95}, {"measurement": "pIC50", "setting": "human MMP9", "value": 5.27}, {"measurement": "ristocetin-induced vWF/GPIbα-dependent aggregation of iPSC platelets generated with inhibitor", "setting": "[4]", "value": "greater aggregation capability"}, {"measurement": "effect on platelet aggregation induced by thrombin or collagen", "setting": "platelet aggregation", "value": "no adverse effects"}, {"measurement": "pIC50", "setting": "human MMP2", "value": 6.14}]}]}
